In PubChem BioAssay AID248 (DTP/NCI, 2004):
Several values for one entry are separate records, joined by “and”; a condition that tells them apart may be missing. Identical values can stand only once. Toxic doses and inconclusive results are not listed. Rule as the data show it: active = T/C of 150% or more; inactive = T/C below 125%.

System: L1210 leukemia ip in BDF1 mice, survival T/C
Experiment: NCI In Vivo Anticancer Drug Screen. Data for tumor model L1210 Leukemia (intraperitoneal) in B6D2F1 (BDF1) mice
Details: endpoint: mean survival time, higher = longer survival
Method in brief: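 Survival endpoint. Drug-treated group vs vehicle group, expressed as T divided by C. Tumor passaged by transplantation.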

[1] = dose: 100.0 mg/kg/injection, schedule: Q01DX001 (ip), vehicle: Klucel (hydroxypropylcellulose) (HPC)
[2] = dose: 100.0 mg/kg/injection, schedule: Q01DX009 (ip), vehicle: saline with Tween-80
[3] = dose: 100.0 mg/kg/injection, schedule: Q04DX002 (ip), vehicle: saline with Tween-80
[4] = dose: 200.0 mg/kg/injection, schedule: Q01DX009 (ip), vehicle: saline with Tween-80
[5] = dose: 200.0 mg/kg/injection, schedule: Q04DX002 (ip), vehicle: saline with Tween-80
[6] = dose: 400.0 mg/kg/injection, schedule: Q04DX002 (ip), vehicle: saline with Tween-80
[7] = dose: 100.0 mg/kg/injection, schedule: Q04DX003 (ip), vehicle: saline
[8] = dose: 200.0 mg/kg/injection, schedule: Q04DX003 (ip), vehicle: saline
[9] = dose: 100.0 mg/kg/injection, schedule: Q04DX003 (ip), vehicle: saline with Tween-80
[10] = dose: 200.0 mg/kg/injection, schedule: Q04DX003 (ip), vehicle: saline with Tween-80
[11] = dose: 400.0 mg/kg/injection, schedule: Q04DX003 (ip), vehicle: saline with Tween-80
[12] = dose: 100.0 mg/kg/injection, schedule: Q04DX003 (ip), vehicle: Klucel (hydroxypropylcellulose) (HPC)
[13] = dose: 200.0 mg/kg/injection, schedule: Q01DX001 (ip), vehicle: Klucel (hydroxypropylcellulose) (HPC)
[14] = dose: 200.0 mg/kg/injection, schedule: Q04DX003 (ip), vehicle: Klucel (hydroxypropylcellulose) (HPC)
[15] = dose: 400.0 mg/kg/injection, schedule: Q01DX001 (ip), vehicle: Klucel (hydroxypropylcellulose) (HPC)
[16] = dose: 400.0 mg/kg/injection, schedule: Q04DX003 (ip), vehicle: Klucel (hydroxypropylcellulose) (HPC)
[17] = dose: 100.0 mg/kg/injection, schedule: Q01DX001 (ip), vehicle: saline with Tween-80
[18] = dose: 50.0 mg/kg/injection, schedule: Q01DX001 (ip), vehicle: carboxymethylcellulose (CMC)
[19] = dose: 100.0 mg/kg/injection, schedule: Q01DX001 (ip), vehicle: carboxymethylcellulose (CMC)
[20] = dose: 200.0 mg/kg/injection, schedule: Q01DX001 (ip), vehicle: carboxymethylcellulose (CMC)
[21] = dose: 400.0 mg/kg/injection, schedule: Q01DX001 (ip), vehicle: carboxymethylcellulose (CMC)

Measured: T/C

C=CCCc1c(N)nc(N)[nH]c1=O
inactive: dose: 25.0 mg/kg/injection, schedule: Q01DX001 (ip), vehicle: Klucel (hydroxypropylcellulose) (HPC) 100 % of control | dose: 50.0 mg/kg/injection, schedule: Q01DX001 (ip), vehicle: Klucel (hydroxypropylcellulose) (HPC) 100 % of control | [1] 96 % of control

COC(=O)c1ccc(OC(=O)Nc2cccc(Cl)c2C)cc1
inactive: [2] 98 % of control and 100 % of control | [3] 93 % of control and 91 % of control | [4] 95 % of control and 91 % of control | [5] 96 % of control and 87 % of control | [6] 96 % of control and 97 % of control

CN(C)CCS(=O)(=O)O
inactive: [7] 104 % of control | [8] 104 % of control | dose: 400.0 mg/kg/injection, schedule: Q04DX003 (ip), vehicle: saline 104 % of control

CCCCN(CCCC)CC(O)c1cnc2c(Cl)cc(Cl)cc2c1Cl (centres undefined)
inactive: [2] 101 % of control | [9] 100 % of control | [4] 102 % of control | [10] 102 % of control | [11] 108 % of control

CC(=O)Oc1c(C)c(Br)c(OC(C)=O)c(-c2c(C)cc(C)c(Br)c2C)c1Br
inactive: [1] 87 % of control | [12] 100 % of control | [13] 95 % of control | [14] 95 % of control | [15] 95 % of control | [16] 101 % of control

O=[N+]([O-])c1ccc2nc(-c3ccccc3)c(-c3ccccc3)nc2c1
inactive: dose: 100.0 mg/kg/injection, schedule: Q01DX009 (ip), vehicle: Klucel (hydroxypropylcellulose) (HPC) 102 % of control | [12] 98 % of control | dose: 200.0 mg/kg/injection, schedule: Q01DX009 (ip), vehicle: Klucel (hydroxypropylcellulose) (HPC) 105 % of control | [14] 104 % of control | dose: 400.0 mg/kg/injection, schedule: Q01DX009 (ip), vehicle: Klucel (hydroxypropylcellulose) (HPC) 96 % of control | [16] 104 % of control

CC(=O)OCN1C(=O)C2C3CCC(O3)C2C1=O (centres undefined)
inactive: dose: 25.0 mg/kg/injection, schedule: Q04DX003 (ip), vehicle: saline with Tween-80 104 % of control | dose: 50.0 mg/kg/injection, schedule: Q04DX003 (ip), vehicle: saline with Tween-80 98 % of control | [17] 106 % of control | [9] 95 % of control and 104 % of control | dose: 200.0 mg/kg/injection, schedule: Q01DX001 (ip), vehicle: saline with Tween-80 98 % of control

CCOC(OCC)c1ccccc1
inactive: dose: 50.0 mg/kg/injection, schedule: Q01DX001 (ip), vehicle: saline 113 % of control | dose: 100.0 mg/kg/injection, schedule: Q01DX001 (ip), vehicle: saline 115 % of control | dose: 200.0 mg/kg/injection, schedule: Q01DX001 (ip), vehicle: saline 109 % of control | dose: 400.0 mg/kg/injection, schedule: Q01DX001 (ip), vehicle: saline 113 % of control

c1cc2c(cc1C1=NNC(c3ccc4c(c3)OCO4)=NN1)OCO2
inactive: [9] 104 % of control | [10] 98 % of control | [11] 96 % of control

O=CN(O)CC(=O)O.[Ni]
inactive: dose: 6.25 mg/kg/injection, schedule: Q01DX009 (ip), vehicle: saline 105 % of control | dose: 12.5 mg/kg/injection, schedule: Q01DX009 (ip), vehicle: saline 109 % of control

CCN(CC)C(=O)COC(=O)c1cccc2[nH]ccc12
inactive: [9] 102 % of control | [10] 100 % of control | [11] 102 % of control

CN1C(C(=O)c2ccc(-c3ccccc3)cc2)C1c1ccccc1 (centres undefined)
inactive: [1] 93 % of control | [13] 97 % of control | [15] 110 % of control

Cc1ccc(C=C2c3ccccc3-c3ccccc32)cc1
inactive: dose: 12.5 mg/kg/injection, schedule: Q04DX002 (ip), vehicle: gum acacia 120 % of control | dose: 25.0 mg/kg/injection, schedule: Q04DX002 (ip), vehicle: gum acacia 88 % of control | dose: 50.0 mg/kg/injection, schedule: Q04DX002 (ip), vehicle: gum acacia 98 % of control

Cc1cc(C)c(NS(=O)(=O)c2ccccc2)c([N+](=O)[O-])c1
inactive: [3] 101 % of control | [5] 104 % of control | [6] 104 % of control

Nc1ncn(C2CC(OC(=O)c3ccc(Cl)cc3)C(COC(=O)c3ccc(Cl)cc3)O2)c(=O)n1 (centres undefined)
inactive: dose: 100.0 mg/kg/injection, schedule: Q01DX005 (ip), vehicle: saline 110 % of control and 122 % of control | dose: 200.0 mg/kg/injection, schedule: Q01DX005 (ip), vehicle: saline 104 % of control

CC(Cl)CN(Cc1cc(CN(CC(C)Cl)CC(C)Cl)c(O)cc1O)CC(C)Cl (centres undefined)
inactive: dose: 12.5 mg/kg/injection, schedule: Q01DX001 (sc), vehicle: olive oil, sesame oil, peanut oil 102 % of control | dose: 12.5 mg/kg/injection, schedule: Q01DX015 (sc), vehicle: olive oil, sesame oil, peanut oil 95 % of control | dose: 25.0 mg/kg/injection, schedule: Q01DX001 (sc), vehicle: olive oil, sesame oil, peanut oil 100 % of control | dose: 25.0 mg/kg/injection, schedule: Q01DX015 (sc), vehicle: olive oil, sesame oil, peanut oil 110 % of control | [18] 93 % of control | dose: 50.0 mg/kg/injection, schedule: Q01DX001 (sc), vehicle: olive oil, sesame oil, peanut oil 96 % of control | dose: 50.0 mg/kg/injection, schedule: Q01DX015 (sc), vehicle: olive oil, sesame oil, peanut oil 93 % of control | [19] 110 % of control | dose: 100.0 mg/kg/injection, schedule: Q01DX001 (sc), vehicle: olive oil, sesame oil, peanut oil 102 % of control | dose: 100.0 mg/kg/injection, schedule: Q01DX015 (sc), vehicle: olive oil, sesame oil, peanut oil 95 % of control | [20] 110 % of control | dose: 200.0 mg/kg/injection, schedule: Q01DX015 (sc), vehicle: olive oil, sesame oil, peanut oil 112 % of control | [21] 104 % of control | dose: 400.0 mg/kg/injection, schedule: Q01DX015 (sc), vehicle: olive oil, sesame oil, peanut oil 104 % of control | dose: 600.0 mg/kg/injection, schedule: Q01DX015 (sc), vehicle: olive oil, sesame oil, peanut oil 102 % of control

COc1cc(O)c(/C=N\N=C\c2ccco2)c(OC)c1
inactive: dose: 75.0 mg/kg/injection, schedule: Q01DX001 (ip), vehicle: saline 90 % of control | dose: 150.0 mg/kg/injection, schedule: Q01DX001 (ip), vehicle: saline 90 % of control | dose: 300.0 mg/kg/injection, schedule: Q01DX001 (ip), vehicle: saline 86 % of control

O=C(O)CNC1CCCCC1
inactive: dose: 100.0 mg/kg/injection, schedule: Q01DX009 (ip), vehicle: saline 96 % of control | dose: 100.0 mg/kg/injection, schedule: Q04DX002 (ip), vehicle: saline 97 % of control | dose: 200.0 mg/kg/injection, schedule: Q01DX009 (ip), vehicle: saline 89 % of control | dose: 200.0 mg/kg/injection, schedule: Q04DX002 (ip), vehicle: saline 102 % of control | dose: 400.0 mg/kg/injection, schedule: Q01DX009 (ip), vehicle: saline 96 % of control | dose: 400.0 mg/kg/injection, schedule: Q04DX002 (ip), vehicle: saline 97 % of control

C/C(=C/c1ccc(/C=C(\C)[N+](=O)[O-])cc1)[N+](=O)[O-]
inactive: dose: 10.0 mg/kg/injection, schedule: Q01DX001 (ip), vehicle: acetone 106 % of control

Oc1ccccc1C=NC1CCCCC1.Oc1ccccc1C=NC1CCCCC1.[Ni+2]
inactive: [12] 96 % of control | [7] 94 % of control | [14] 92 % of control | [8] 96 % of control | [16] 90 % of control

Nc1nc(N)nc(Cc2nc(N)nc(N)n2)n1
inactive: [18] 90 % of control | [19] 87 % of control | [20] 92 % of control | [21] 95 % of control

O=C1c2ccccc2-c2ccc(N3C(=O)c4ccccc4C3=O)cc21
inactive: dose: 16.5 mg/kg/injection, schedule: Q01DX001 (ip), vehicle: saline with Tween-80 88 % of control | dose: 37.5 mg/kg/injection, schedule: Q01DX001 (ip), vehicle: saline with Tween-80 92 % of control | dose: 50.0 mg/kg/injection, schedule: Q01DX001 (ip), vehicle: saline with Tween-80 95 % of control | [17] 91 % of control
